The subject of experiment [1] is pDNA-PK induction in HCT116 tumour spheroids. Kind of experiment: Multicellular tumour spheroid + radiation, pDNA-PK (ser2056) inhibition, immunohistochemical endpoint, HCT116. The format is cell-based. The conditions noted are these: Homo sapiens, 20 Gy, 20% O2. Here is the method: Multicellular tumour spheroids determination of compound inhibition of pDNA-PK induction following radiation. Tumour spheroids were grown to approximately 0.5 mm in diameter and irradiated with 20 Gy in combination with inhibitor test compounds to determine their potency. Inhibitor concentration for 50% reduction in pDNA-PK induction (IC50) was determined via immunohistochemical staining in spheroid cryosections taken 2 hours following radiation.
Spheroid+radiation pDNA-PK. Radiation: 20 Gy. Drug: serial dilution 5 or 10 μM down to 3.5 nM (11 wells). Spheroids: 3-6 spheroids per well (300-500 μm diameter). 20% 02 and 5% CO2. 96 well plate format.
Protocol: pre-incubate 1 hours with drug, irradiate with 20 Gy, post-incubate 2 hours with drug, freeze and cryosection ×3 replicates.
Endpoint: fluorescent immunostin pDNA-PK ser2056 and image on microscope.
Analysis: determine EC50 concentration that decreases pDNA-PK induction by 50% after radiation.
Multicellular tumour spheroids determination of compound inhibition of pDNA-PK induction following radiation. Tumour spheroids were grown to approximately 0.5 mm in diameter and irradiated with 20 Gy in combination with inhibitor test compounds to determine their potency. Inhibitor concentration for 50% reduction in pDNA-PK induction (IC50) was determined via immunohistochemical staining in spheroid cryosections taken 2 hours following radiation. For cell survival endpoint 8 Gy radiation was used and 3 hours following radiation spheroids were dissociated, counted and plated for colony forming endpoint.
Spheroid+radiation pDNA-PK. Radiation: 20 Gy. Drug: serial dilution 5 or 10 μM down to 3.5 nM (11 wells). Spheroids: 3-6 spheroids per well (300-500 μm diameter). 20% 02 and 5% CO2. 96 well plate format. Endpoint: fluorescent immunostain pDNA-PK ser2056 and image on microscope. Analysis: determine EC50 concentrations that decreases pDNA-PK induction by 50% after irradiation.
Multicellular tumour spheroids were used to determine potency of test compounds in a 3D tissue environment using inhibition of pDNA-PK induction following radiation or cell survival as the endpoint. For the pDNA-PK endpoint HCT116 or FaDU tumour spheroids were grown to approximately 0.5 mm in diameter and irradiated with 20 Gy in combination with inhibitor test compounds to determine their potency. Experiments were carried out in 96 well plates containing 0.7 mls of MEM media containing 10% FBS and 10 mM glucose under 20% O2 & 5% CO2 at 37° C. Following dilution of compounds 1:1000 from DMSO stocks, compounds were serially diluted from 10 μM down to 3.5 nM and 5-10 spheroids added. 96 well plates were constantly stirred to avoid spheroids settling during the course of the experiment. The inhibitor concentration for 50% reduction in pDNA-PK induction (EC50) was determined via immunohistochemical staining in spheroid cryosections taken 2 hours following radiation using anti-pDNA-PK (ser 2056) and fixed immediately in formalin following sectioning. For cell survival endpoint 8 Gy radiation was used and, 3 hours following radiation, spheroids were dissociated, counted and plated for colony forming endpoint. Data presented in the table compound potency as EC50 [μM].

Experiment [2] has as its target T1, DNA-PK (Homo sapiens, UniProt P78527).
T1 construct: purchased Invitrogen PR9107A
As to the kind of experiment: DNA-PK Assay for Biochemical Enzymatic Inhibition (ADP Glo Kinase assay). The conditions noted are these: DNA-PK enzyme, Table 1. Here is the method:
A biochemical assay was performed to identify IC50 values against DNA-PK activity in a two-step reaction with a kinase reaction followed by ADP Glo™ Kinase assay Kit (Promega V9102).
Three-fold serial dilutions of compounds in DMSO were prepared in kinase assay buffer (50 mM HEPES pH 7.5, 20 mM MgCl2, 100 mM KCl, 50 μM DTT, 10 μg/ml calf thymus DNA, 0.01% Tween 20). Kinase assay buffer was used to prepare compound treatments to 0.02% DMSO (dimethyl sulphoxide) content. DMSO controls were prepared to produce a maximum and minimum luminescence signal for normalization. Substrate (Anaspec, AS-60210-5) and ATP (Promega V9102) and ATP mix was prepared by dilution in kinase assay buffer for 434.4 μM and 64.4 μM final assay concentrations, respectively. Compounds and control were added to 25 ng DNA-PK enzyme (Invitrogen, PR9107A) diluted in kinase buffer in assay plate (Corning 267459) and incubated for 15 minutes at room temperature prior to addition of substrate and ATP mix.
Throughout the assay, each time a reagent was added to the microplate, it was centrifuged for 1 minute at 1300 rcf. All reagents were added, and incubations carried out at room temperature. The reaction was then incubated for 60 minutes. ADP-ATP standards at 0, 4, 10, 40, 80, and 100% ADP (prepared as specified in the ADP Glo™ Kinase assay kit) were also added to the microplate at a volume equal to the total kinase reaction. The ADP Glo™ Kinase Assay kit was then used to quantify DNA-PK activity: following the 60-minute incubation, a 1:1 volume of ADP Glo reagent was added to all wells, then following a further 45-minute incubation, a 1:1 volume of Kinase Detection Reagent was added to all wells. After this two-step assay, plates were incubated in a Synergy-Neo2 plate reader for 30 minutes with gentle shaking, followed by endpoint luminescent read Luminescence data was normalized by subtracting the background signal and expressing all background-adjusted values as a percentage of the average maximum signal. The data was then expressed as percent inhibition by subtracting from 100% (i.e. maximum luminescent signal will be 0% inhibition) and the resulting data plotted against ten concentration points on a logarithmic scale, using GraphPad Prism. Non-linear regression analysis was performed on each concentration response curve and the log [inhibitor] vs response—variable slope (four parameters) equation was selected to generate IC50 values.
On the technique in general: ADP-Glo first removes unused ATP, then detects ADP through luciferase.

The target of experiment [3] is T2, DNA-PK phosphorylation at Serine 2056 (Homo sapiens, UniProt P78527).
T2 construct: FaDu cells were purchased from ATCC; host or cells: FaDu
As to the kind of experiment: Cellular Assay for Inhibition of DNA-PK Phosphorylation at Serine 2056 in FaDu cells (sandwich ELISA, neocarzinostatin). Conditions: pSer2056 DNA-PK, neocarzinostatin 1 μg/mL, Table 1. The format is cell-based. In outline: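 pSer2056 and total DNA-PK were measured by sandwich ELISA in BCA-normalised FaDu lysates. Cells had 1 h compound exposure (0.3% DMSO), then 2 h with 1 μg/mL final neocarzinostatin. IC50 was fitted (variable slope) to % inhibition scaled against NCS-stimulated and DMSO-only controls.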
A general note: ELISA stands for enzyme-linked immunosorbent assay.

Setting [4] is: HCT-116, 2 hours following radiation, Example 9 Study 2, read-out: Spheroid Cell line: HCT116 Immunohistochemical endpoint pDNA-PK inhibition EC50.
[5] abbreviates: HCT-116, Spheroid, Cell Line: HCT115 (so in the source), 2 hours following radiation, Example 7, read-out: EC50, Immunohistochemical endpoint, pDNA-PK inhibition.
The mark [6] stands for this setting: HCT-116, 2 h, spheroids, Example 8, read-out: Cell line: HCT116 Immunohistochemical endpoint pDNA-PK inhibition EC50.

Read-outs that look alike come from different tables or passages of the source.

Turning to `O=C(O)COc1cnc(N[C@H]2CC[C@@H](Oc3nc(N4CCOCC4)cc4ncccc34)CC2)nc1` [Compound 59, 2-((2-(((1s,4s)-4-((7-Morpholino-1,6-naphthyridin-5-yl)oxy)cyclohexyl)amino)pyrimidin-5-yl)oxy)acetic acid], the EC50 in experiment [1] (setting [4]) and in experiment [1] (setting [5]) was 10000 to 100000 nM in each case. Also, the values for the IC50 in experiment [2] and in experiment [3] were below 0.5 nM and 10000 to 30000 nM, respectively.
For `O=C(COc1cnc(N[C@H]2CC[C@@H](Oc3nc(N4CCOCC4)cc4ncccc34)CC2)nc1)N1CCSCC1` [Compound 73, 2-((2-(((1s,4s)-4-((7-Morpholino-1,6-naphthyridin-5-yl)oxy)cyclohexyl)amino)pyrimidin-5-yl)oxy)-1-thiomorpholinoethan-1-one], the EC50 in experiment [1] (setting [4]) and in experiment [1] (setting [5]) was 1000 to 10000 nM in each case. Also, the IC50 in experiment [2] lay within 0.5 to 1 nM; in experiment [3] it was 100 to 1000 nM.
`O=C(COc1cnc(N[C@H]2CC[C@@H](Oc3nc(N4CCOCC4)cc4ncccc34)CC2)nc1)N1CCCC1` [Compound 74, 2-((2-(((1s,4s)-4-((7-Morpholino-1,6-naphthyridin-5-yl)oxy)cyclohexyl)amino)pyrimidin-5-yl)oxy)-1-(pyrrolidin-1-yl)ethan-1-one]: the EC50 in experiment [1] (setting [4]) and in experiment [1] (setting [5]) was 1000 to 10000 nM throughout. Besides, the IC50 in experiment [2] fell in the range of 0.5 to 1 nM; in experiment [3] it was 100 to 1000 nM.
On to `O=C(COc1cnc(N[C@H]2CC[C@@H](Oc3nc(N4CCOCC4)cc4ncccc34)CC2)nc1)N1CC(O)C1` [Compound 77, 1-(3-Hydroxyazetidin-1-yl)-2-((2-(((1s,4s)-4-((7-morpholino-1,6-naphthyridin-5-yl)oxy)cyclohexyl)amino)pyrimidin-5-yl)oxy)ethan-1-one], for which the EC50 in experiment [1] (setting [4]) and in experiment [1] (setting [5]) was 500 to 1000 nM each time. In addition, the IC50 in experiment [2] is below 0.5 nM; in experiment [3], 100 to 1000 nM.
For `c1cnc2cc(N3CCOCC3)nc(O[C@H]3CC[C@@H](Nc4ncc(OCc5ncco5)cn4)CC3)c2c1` [Compound 78, N-((1s,4s)-4-((7-Morpholino-1,6-naphthyridin-5-yl)oxy)cyclohexyl)-5-(oxazol-2-ylmethoxy)pyrimidin-2-amine], the EC50 in experiment [1] (setting [4]) and in experiment [1] (setting [5]) was 1000 to 10000 nM in each case. Besides, the IC50 in experiment [2] fell in the range of 0.5 to 1 nM; in experiment [3], 100 to 1000 nM.
`Cn1ccnc1COc1cnc(N[C@H]2CC[C@@H](Oc3nc(N4CCOCC4)cc4ncccc34)CC2)nc1` [Compound 79, 5-((1-methyl-1H-imidazol-2-yl)methoxy)-N-((1s,4s)-4-((7-morpholino-1,6-naphthyridin-5-yl)oxy)cyclohexyl)pyrimidin-2-amine]: the EC50 in experiment [1] (setting [4]) and in experiment [1] (setting [5]) was 1000 to 10000 nM throughout. For the same molecule, the results for the IC50 in experiment [2] and in experiment [3] were 0.5 to 1 nM and 100 to 1000 nM, respectively.
Take `CCOC(=O)c1cnc(NC2CCOCC2)nc1N[C@H]1CC[C@@H](Oc2nc(N3CCOCC3)cc3ncccc23)CC1` [Compound 93, Ethyl 4-(((1s,4s)-4-((7-morpholino-1,6-naphthyridin-5-yl)oxy)cyclohexyl)amino)-2-((tetrahydro-2H-pyran-4-yl)amino)pyrimidine-5-carboxylate]: the EC50 in experiment [1] (setting [4]) and in experiment [1] (setting [5]) was 10000 to 100000 nM each time. For the same molecule, the IC50 in experiment [2] fell in the range of 10 to 150 nM; in experiment [3], 1000 to 10000 nM.
In the case of `CCOC(=O)c1cnc(N[C@H]2CC[C@@H](Oc3nc(N4CCOCC4)cc4ncccc34)CC2)nc1NC1CCOCC1` [Compound 94, Ethyl 2-(((1s,4s)-4-((7-morpholino-1,6-naphthyridin-5-yl)oxy)cyclohexyl)amino)-4-((tetrahydro-2H-pyran-4-yl)amino)pyrimidine-5-carboxylate], the 50% effective concentration (EC50) in experiment [1] (setting [4]) and in experiment [1] (setting [5]) was 1000 to 10000 nM throughout. In addition, the IC50 in experiment [2] fell in the range of 10 to 150 nM; in experiment [3], 100 to 1000 nM.
On to `CN(C)CCOc1cnc(C(=O)N[C@H]2CC[C@@H](Oc3nc(N4CCOCC4)cc4ncccc34)CC2)nc1` [Compound 126, 5-(2-(dimethylamino)ethoxy)-N-((1s,4s)-4-((7-morpholino-1,6-naphthyridin-5-yl)oxy)cyclohexyl)pyrimidine-2-carboxamide], for which the EC50 in experiment [1] (setting [4]) and in experiment [1] (setting [5]) was 10000 to 100000 nM in each case. Besides, the IC50 in experiment [2] fell in the range of 1 to 10 nM; in experiment [3], 1000 to 10000 nM.
`O=C(Nc1ccc(F)cc1)N[C@H]1CC[C@@H](Oc2nc(N3CCOCC3)cc3ncccc23)CC1` [Compound 151, 1-(4-Fluorophenyl)-3-((1s,4s)-4-((7-morpholino-1,6-naphthyridin-5-yl)oxy)cyclohexyl)urea]: the EC50 in experiment [1] (setting [6]), in experiment [1] (setting [4]) and in experiment [1] (setting [5]) was 1000 to 10000 nM throughout. Moreover, the IC50 was in the range of 1 to 10 nM in experiment [2] and 100 to 1000 nM in experiment [3].
For `CN(C)C(=O)N[C@H]1CC[C@@H](Oc2nc(N3CCOCC3)cc3ncccc23)CC1` [Compound 153, 1,1-Dimethyl-3-((1s,4s)-4-((7-morpholino-1,6-naphthyridin-5-yl)oxy)cyclohexyl)urea], the EC50 in experiment [1] (setting [6]), in experiment [1] (setting [4]) and in experiment [1] (setting [5]) was 10000 to 100000 nM throughout. In addition, the IC50 in experiment [2] was in the range of 1 to 10 nM; in experiment [3], 100 to 1000 nM.
Turning to `O=C(Nc1ccccn1)[C@H]1CC[C@@H](Oc2nc(N3CCOCC3)cc3ncccc23)CC1` [Compound 154c, (1S,4S)-4-((7-morpholino-1,6-naphthyridin-5-yl)oxy)-N-(pyridin-2-yl)cyclohexane-1-carboxamide], the EC50 in experiment [1] (setting [6]), in experiment [1] (setting [4]) and in experiment [1] (setting [5]) was 1000 to 10000 nM in each case. In addition, the IC50 lay within 1 to 10 nM in experiment [2] and 100 to 1000 nM in experiment [3].

Broadly, the EC50 is the midpoint of the concentration-response curve. By IC50 is commonly meant the concentration that inhibits the measured activity by half.
